Data set [1] deals with T1, NDM-1 (Klebsiella pneumoniae, UniProt C7C422). Put plainly: Enzymatic metallo-β-lactamase assay on purified NDM-1. It counts as biochemical. As to conditions: for Ki: approximated from Dixon plots (1/v vs [I]) at one constant substrate concentration, ± SE, read-out: Estimated inhibition constant Ki NDM-1; for logIC50 NDM-1: log of IC50, ± SEM of logIC50; for IC50: purified enzyme 5 nM, imipenem 30 μM, pH 7.2, 25 °C. The procedure: (§1) A few inhibitors were tested up to 1600 μM to ensure nearly complete inhibition. Solutions of 100 μL consisting of buffer, purified enzyme (1 nM for GIM-1 and VIM-2, 5 nM for NDM-1), inhibitor and reporter substrate nitrocefin (15 μM for VIM-2, 2 μM for GIM-1) or imipenem (30 μM for NDM-1) were incubated in triplicates on a 96 well plate for 5 min at 25 °C. Buffer solution consisted of 50 mM HEPES pH 7.2, 50 μM ZnSO4 and 0.4 mg/ml bovine serum albumine. Inhibitors were dissolved in DMSO but diluted to assure <2% DMSO in measured assay. Absorbance was measured at 482 nm (nitrocefin) and 300 nm (imipenem) on a SpectraMax M4 spectrophotometer. The initial velocity at each inhibitor concentration was analyzed in GraphPad Prism v9.3.1 and fitted to dose-response curves by non-linear regression (log [inhibitor] vs response) used to calculate IC50 (Supplementary Tables S2–5).
T1 sequence (C7C422 29-270, looked up, species assumed): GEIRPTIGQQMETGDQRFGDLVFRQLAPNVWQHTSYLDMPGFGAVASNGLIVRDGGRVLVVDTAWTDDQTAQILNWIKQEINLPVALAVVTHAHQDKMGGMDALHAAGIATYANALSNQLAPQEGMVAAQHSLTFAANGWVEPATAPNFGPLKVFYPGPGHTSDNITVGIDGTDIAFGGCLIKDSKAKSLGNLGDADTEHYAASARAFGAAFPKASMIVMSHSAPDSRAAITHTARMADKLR

Data set [2] concerns the target T2, VIM-2 (Escherichia coli, UniProt Q5U7L7). Put plainly: Enzymatic metallo-β-lactamase assay on purified VIM-2. It counts as biochemical. As to conditions: for Ki: approximated from Dixon plots (1/v vs [I]) at one constant substrate concentration, ± SE, read-out: Estimated inhibition constant Ki VIM-2; for logIC50 VIM-2: log of IC50, ± SEM of logIC50; for IC50: purified enzyme 1 nM, nitrocefin 15 μM, pH 7.2, 25 °C. The procedure:
as §1

The next data set addresses T3, 15N-labelled VIM-2 (Escherichia coli, UniProt Q5U7L7).
T3 construct: made in house
Put plainly: 1H,15N-HSQC titration of VIM-2. The format is binding. As to conditions: 10 equivalents of compound, 600 MHz, pH 7.0, 25 °C. The procedure:
The ^1H, ^15N-HSQC spectra for the titration experiments were recorded on a Bruker Avance Neo 600 MHz spectrometer equipped with a 5 mm TCI cryogenic probe at 25 °C. The U-[^15N]-labeled VIM-2 was prepared in a buffer of 20 mM KPO4, 0.1 mM ZnCl2, at pH 7.0, containing 85% H2O/15% D2O at a concentration of 0.25 mM. The U-[^15N]-labeled NDM-1 was used in a buffer of 20 mM HEPES, 0.1 mM ZnCl2, at pH 7.0, containing 85% H2O/15% D2O at a concentration of 0.25 mM. The ligands 5d, 5g, 5i, 5j (for VIM-2 titrations) and 5 f (for NDM-1 titration) were dissolved in the same buffer as the corresponding enzymes. Spectra were recorded using solvent suppression, 1024 points in f1, 16 transients, 512 increments in f2 and a relaxation delay of 0.2 s. The titrations were carried out with 0, 0.25, 0.50, 1.00, 1.50, 2.25, 3.00, 4.00, 5.00, 7.00, 10.0 equivalents of the inhibitors.
Figure S47. Superimposition of the 1H,15N-HSQC spectrum (600 MHz, pH 7.0, 25 °C) of
VIM-2 in the absence (blue) and in the presence (green) of 10 molar equivalent of compound
5j. Buffer: 20 mM KPO4, 0.1 mM ZnCl2, with 15% D2O.
Chemical shift perturbation values (CSP, ΔδNH) were calculated as the weighted average of
the chemical shift changes in f1 (ΔδN) and f2 (ΔδH) dimensions using the following equation 8:
∆δ = √∆δ 2 + ( N ); R = 6.5
Figure S48. Linear regression of the chemical shift perturbations of compound 5g (IC50 =
12 μM) as a function of the chemical shift perturbations of compounds 5c (yellow circle), 5d
(grey square), 5i (green triangle) and 5j (blue circle) for VIM-2. The data of the studied […]

A further data set in a line: MTT cytotoxicity assay. The format is cell-based. As to conditions: human, HepG2 cells. The procedure: Cytotoxic activity of the compounds was measured through the MTT colorimetric assay as previously described[60] using the Colorimetric (MTT) Kit for Cell Survival and Proliferation (Merck/Millipore; Darmstadt, Germany). HepG2 cells (human hepatocellular carcinoma cell line) were kept in penicillin/streptomycin-free medium overnight and then they were treated with the compounds for 24 h. Subsequently, the MTT reagent was added to the cells and after 3 h of incubation, MTT-derived formazan crystals were solubilized in acidified isopropanol (0.1 mL isopropanol with 0.04 N HCl). Absorbance was measured with multiscan spectrophotometer (Thermo Fisher Scientific) at 530 nm test and 630 nm reference wavelengths. Cell viability was expressed as the percentage of viable, untreated cells. CC50 values were determined with GraphPad Prism software (v9.3.1) and adjusted to dose-response curves by non-linear regression (Supplementary Table S7).
8. Cytotoxocity against HepG2 cells
Table S7. CC50 values and viability curves of metallo-β-lactamase inhibitors tested on HepG2 […]
cells. […]
range. Data are shown as % via bility values ± SEM (n=4). Calculations were done using […]
Inhibitors CC50 (μM) HepG2 […]

Data set [3] in a line: Long term stability in buffer with 2.5% DMSO (LC-MS). It counts as physicochemical. As to conditions: 20 mM KPO4, 0.1 mM ZnCl2, pH 7.0 + 2.5% DMSO; LC-MS 254 nm. The text has this:
Reagents, reactants, solvents and drying agents for synthesis, work-up and purification were purchased from commercial vendors (Sigma-Aldrich, VWR, Merck, Fluorochem, Thermo Fisher Scientific, Solveco), and if not stated otherwise they were used without further purification. Reactions and long term stability of the final compounds in buffer were monitored using LC-MS (Agilent 1260 Infinity II) equipped with an ESI-Q detector (Infinitylab LC-MSD) using Agilent InfinityLab Poroshell 120 C18 columns (2.7 μm, ϕ 2.1 mm L 50 mm or 2.7 μm, ϕ 4.6 mm L 50 mm). The intermediates were purified using VWR silica gel 60 (40–63 μm) with a Biotage Isolera One flash column chromatography instrument. The final products were purified with preparative RP-HPLC (VWR LaPrep P110) with single wavelength detection (254 nm), using a Kinetex C8 column (5 μm, 100 Å, ϕ 21.2 mm L 250 mm) and gradients of CH3CN/H2O + 0.1% formic acid as the mobile phase at a 10 mL/min flow rate. Analytical HPLC data were acquired on a VWR LaChrome ELITE system using an ACE3 C8 (3 μm, 300 Å, ϕ 3.0 mm L 100 mm) or a Kinetex C18 columns (5 μm, 100 Å, ϕ 3.0 mm L 150 mm). NMR spectra were recorded on a Varian Agilent MR400-DD2 400 MHz spectrometer equipped with a OneNMR probe, Bruker Avance Neo 500 MHz spectrometer equipped with a cryogenic TXO probe, or a Bruker Avance Neo 600 MHz spectrometer equipped with a TCI cryogenic probe. The chemical shifts are reported using the residual solvent signal as an indirect reference to TMS.
4. Long term stability of the final compounds in buffer with 2.5% DMSO
The long term stability of the final compounds in buffer (20 mM KPO4, 0.1 mM ZnCl2, pH 7.0 + 2.5% DMSO) were monitored using LC-MS (Agilent 1260 Infinity II) equipped with an ESI-Q detector (Infinitylab LC-MSD) using Agilent InfinityLab Poroshell 120 C18 column (2.7 μm, ϕ 4.6 mm L 50 mm) at 254 nm with a 7 min long gradient method (5% to 95% CH3CN) of CH3CN/H2O + 0.1% formic acid as the mobile phase at a 1.0 mL/min flow rate. The samples were measured right after dissolving them in buffer, and after 1 month of keeping the same samples dissolved in the same buffer. The main peaks (> 95%) and impurities with > 1% are […]
Figure S14. Compound 5a right after dissolving it in buffer.
Figure S15. Compound 5a kept in buffer for 1 month. […]

The target of data set [4] is T4, GIM-1 (Pseudomonas aeruginosa, UniProt Q704V1). In words: Enzymatic metallo-β-lactamase assay on purified GIM-1. The format is biochemical. As to conditions: for logIC50 GIM-1: log of IC50, ± SEM of logIC50; for IC50: purified enzyme 1 nM, nitrocefin 2 μM, pH 7.2, 25 °C. How it is done:
as §1

The target in data set [5] is T4, GIM-1. The data set is described as above. The format is biochemical. The conditions noted are these: approximated from Dixon plots (1/v vs [I]) at one constant substrate concentration; ± SE; read-out: Estimated inhibition constant Ki GIM-1.
Data set [6] concerns the target T1, NDM-1. As to conditions: read-out: IC50 against NDM-1; cited from earlier work.
The conditions of data set [7]: read-out: Kd, affinity to zinc ions; cited from earlier work.
Data set [8] deals with T2, VIM-2. The conditions noted are these: cited from earlier work.
[9] abbreviates: HepG2, MTT, read-out: CC50 (in viability curve).
The mark [10] stands for this setting: MTT, 0.0025 mM - 1mM concentration range, read-out: Cytotoxicity CC50 HepG2.

Read-outs that look alike come from different tables or passages of the source.

T4 sequence (Q704V1 entry or part of it): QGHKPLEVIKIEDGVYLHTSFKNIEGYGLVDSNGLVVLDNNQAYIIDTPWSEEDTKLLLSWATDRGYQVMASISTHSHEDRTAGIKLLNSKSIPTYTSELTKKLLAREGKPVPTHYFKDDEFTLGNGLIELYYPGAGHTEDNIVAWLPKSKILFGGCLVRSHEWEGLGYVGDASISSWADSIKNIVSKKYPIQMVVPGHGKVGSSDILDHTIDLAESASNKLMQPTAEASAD

The term Ki denotes a dissociation constant, usually derived from enzyme kinetics or from competition with a known ligand. The IC50 is the point on the concentration scale where inhibition reaches its midpoint. By CC50 is commonly meant the concentration at which the toxic effect on the cells reaches its halfway point. Regarding `O=C(Cc1ccsc1)NC(c1ccccc1O)P(=O)(O)O` (stereo not drawn) [5j], at NDM-1 [1], the Ki is 196 ± 13 µM, the “logIC50 NDM-1” value is reported as 2.37 ± 0.07 log10(IC50/μM) and the IC50 turned out to be 232 µM. At VIM-2 [2], the Ki is 88 ± 16 µM, the “logIC50 VIM-2” value was 1.57 ± 0.03 μM and the IC50 was 37 µM. Besides, the “Mean chemical shift perturbation, VIM-2” value at 15N-labelled VIM-2 is reported as 0.04 ppm. The CC50 at 24 h in “MTT cytotoxicity assay” (setting [9]) is 4000 µM. The CC50 at 24 h in the data set “MTT cytotoxicity assay” (setting [10]) worked out at 3970 µM. Also, in [3], the “main peak Area% kept in buffer for 1 month” value (from here on “main peak Area% kept”) turned out to be 96.88% and the “main peak Area% right after dissolving in buffer” value (from here on “main peak Area% right”) is given as 95.28%. For the same molecule, on GIM-1 [4], the “logIC50 GIM-1” value is reported as 2.01 ± 0.06 μM and the midpoint of inhibition, the IC50, lay at 103 µM.
Regarding `O=C(Cc1cccs1)NC(c1ccccc1O)P(=O)(O)O` (stereo not drawn) [5i], the Ki on GIM-1 [5] was 348 ± 28 µM. Besides, on NDM-1 [1], the Ki was 1070 ± 360 µM, the “logIC50 NDM-1” value is listed as 1.94 ± 0.08 log10(IC50/μM) and the IC50 was 87 µM. Moreover, at VIM-2 [2], the Ki is 76 ± 8 µM, the “logIC50 VIM-2” value is recorded as 1.58 ± 0.08 μM and the IC50 turned out to be 38 µM. Besides, the “Mean chemical shift perturbation, VIM-2” value on 15N-labelled VIM-2 was 0.04 ppm. Besides, the CC50 at 24 h in the data set “MTT cytotoxicity assay” (setting [9]) was found to be 1500 µM. Besides, the CC50 at 24 h in the data set “MTT cytotoxicity assay” (setting [10]) was 1490 µM. In data set [3], the “main peak Area% kept” value is given as 97.58% and the “main peak Area% right” value came to 96.45%. For the same molecule, at GIM-1 [4], the “logIC50 GIM-1” value is listed as 2.28 ± 0.52 μM and the IC50 was 189 µM.
Take `O=C(NC(c1ccccc1O)P(=O)(O)O)c1cc2ccccc2s1` (stereo not drawn) [5c]: the Ki at GIM-1 [5] is 102 ± 10 µM. On VIM-2 [2], the Ki was 71 ± 6 µM, the “logIC50 VIM-2” value was 2.01 ± 0.05 μM and the IC50 amounted to 103 µM. Further, the “Mean chemical shift perturbation, VIM-2” value on 15N-labelled VIM-2 is reported as 0.05 ppm. In “MTT cytotoxicity assay” (setting [9]), the CC50 at 24 h amounted to 2900 µM. In addition, the CC50 at 24 h in the data set “MTT cytotoxicity assay” (setting [10]) worked out at 2930 µM. Moreover, in [3], the “main peak Area% kept” value turned out to be 97.59% and the “main peak Area% right” value is reported as 97.20%. Moreover, at GIM-1 [4], the “logIC50 GIM-1” value turned out to be 2.01 ± 0.09 μM and the IC50 came to 101 µM.
Consider `O=C(NC(c1ccccc1O)P(=O)(O)O)c1csc2ccccc12` (stereo not drawn) [5d], for which the Ki on GIM-1 [5] is 64 ± 13 µM. In addition, at VIM-2 [2], the Ki was 31 ± 5 µM, the “logIC50 VIM-2” value is 1.33 ± 0.03 μM and half-maximal inhibition (IC50) was put at 21 µM. Besides, the “Mean chemical shift perturbation, VIM-2” value at 15N-labelled VIM-2 is recorded as 0.04 ppm. Also, in the data set “MTT cytotoxicity assay” (setting [9]), the CC50 at 24 h stood at 4400 µM. For the same molecule, the 50% cytotoxic concentration (CC50) at 24 h in “MTT cytotoxicity assay” (setting [10]) is 4440 µM. In data set [3], the “main peak Area% kept” value turned out to be 97.15% and the “main peak Area% right” value is recorded as 97.92%. For the same molecule, on GIM-1 [4], the “logIC50 GIM-1” value is 1.01 ± 0.19 μM and the IC50 is 10 µM.
A word on the Kd: it is the concentration at which binding is half-saturated. In the case of `O=C(O)CN(CC(=O)O)CP(=O)(O)O` [N-(phosphonomethyl)-iminodiacetic acid], the IC50 is 0.91 µM on NDM-1 [6] and 0.68 µM at VIM-2 [8] (read-out: IC50 against VIM-2). Besides, the Kd in data set [7] was 0.056 µM.
As to `NCCN[C@H]1CC[C@H](CC(=O)N[C@H]2Cc3cccc(C(=O)O)c3OB2O)CC1` [taniborbactam], the IC50 on VIM-2 [8] (Table S8, ref 35 (SI), read-out: IC50 VIM-2) is 0.002 µM; at VIM-2 [8] (read-out: IC50 for VIM-2) it was 0.04 µM.
